Assay results published in patent US9839681B1, “Size tunable microbial mimetics for immunotherapy of cancer” (priority 2017, dated 2017).

Test system: Human peripheral blood mononuclear cells (PBMCs)
Test: Induced cytokine secretion by PBMCs exposed for 24 hours, ELISA
Assay type: cell-based
Conditions: 25 μg/mL, 24 hours, 300,000 PBMCs per well
Protocol: FIG. 10 is bar graph showing the induced secretion of IL-6 by PBMCs exposed to PolyIC, RNA248, DNA4, DNA10, PolyIC complexed with SEQ. ID NO. 4 (CAL2), RNA248 complexed with SEQ. ID NO. 4, DNA4 complexed with SEQ. ID NO. 4, DNA10 complexed with SEQ. ID NO. 4, DNA4 and RNA248 complexed with SEQ. ID NO. 4, Pam(2)CSK4-conjugated SEQ. ID NO. 4 complexed with DNA4 and SEQ. ID NO. 4 alone. Each well contained ˜300,000 fresh PBMCs in a total volume of 100 μL of RPMI medium. Solutions of SEQ. ID NO. 4, PolyIC, DNA4, DNA10, Pam(2)CSK4-conjugated SEQ. ID NO. 4 were all pre-mixed to concentrations of 50 ug/mL (for each peptide reagent) and then added to wells in volumes of 100 uL, such that each well contained a 200 uL volume of PBMCs and reagents. Wells were run in triplicate and the mean value is indicated.
A series of in vitro experiments was conducted to characterize the immune-stimulating properties of the MM and their sub-components. Human peripheral blood mononuclear cells (PBMCs) were exposed to a MM containing SEQ. ID NO. 4 and its individual molecular sub-components for 24 hours. For reference, the PBMCs were separately exposed to PolyIC. After this time, the induced secretion of following cytokines by PBMCs was measured: interleukin-6 (IL-6), interleukin-10 (IL-10), interleukin-12 (IL-12), interleukin-15 (IL-15), tumor necrosis factor alpha (TNF-alpha), interferon-alpha (IFN-alpha), and interferon-gamma (IFN-gamma). Experiments were conducted as follows. 150 mL of blood was supplied by a human volunteer and PBMCs were isolated by Ficoll-Paque gradient centrifugation immediately after venipuncture. PBMCs were incubated for 24 hours at 37° C./5% CO2 in 96-well plates, with 300,000 PBMCs per well in a 200 μL medium containing 49% RPMI-1640/49% PBS/1% L-glutamine/1% penicillin-streptomycin and the components in Table 3 at a concentration of 25 μg/mL. All cytokines were measured in triplicate.
After 24 hours, the supernatant from each well was isolated using centrifugation at 3000 g and immediately thereafter cytokines were measured using ELISA kits from Genway Biotech (San Diego, Calif.) and Origene (Rockville, Md.). Per ELISA kit instructions, 100 μL of supernatant was used for each readout. The results are provided in FIGS. 10-16, where the mean of each measurement is provided. (In no instance did the standard deviation exceed 30%.)

Row | Substance | cytokine secretion overall (seven cytokines measured) | induced secretion of IFN-alpha | induced secretion of IL-12 | induced secretion of IL-15
1 | 5′-TCGTCGGTTTCGGCGCGCGCCG-3′ (DNA, all phosphorothioate, methylation of C not given here) [DNA4] | minimal cytokine secretion | somewhat immunogenic | does not induce secretion of high amounts | does not induce secretion of high amounts
2 | 5′-TTCGGCGCGCGCGCGCGCGCGCCGTT-3′ (DNA, all phosphorothioate, methylation of C not given here) [DNA10] | minimal cytokine secretion | – | – | –
3 | 5′-guuggugguugugugagcgu-3′ (GUUGGUGGUUGUGUGAGCGU; listed as RNA, chemistry not fully specified) [RNA248] | minimal cytokine secretion | – | – | –
4 | RRHRKRRLSTCMLGTYTQDFNKFHTFPQTAI (Linker Sequence + synthetic peptide corresponding to calcitonin) [CAL2] | very minimal cytokine secretion | – | – | –
